# Marks after values point to notes of the source that are not given here.
# Tests used:
# human SMN2-gene = experiment: Full-length SMN2 transcript qPCR in tissues of adult SMA mice after intravenous peptide-PMO conjugate; assay type: in vivo
# Description: Smn1tm1Hung/wt; […]; […] Tissues were harvested one week post administration. […] Statistical significance determined by Student'[…]≤0.00005. […] ID NO.151), Exons 7-8 Rev: [NT] ID NO.152). […] [NT] ID NO.154). […] PolJ Forward: [NT] ID NO.155); PolJ Reverse: [NT]
# [1] = Urinary kidney toxicity markers KIM-1 and NGAL by ELISA after a single IV dose of peptide-PMO conjugate; assay type: in vivo; settings: 25 mg/kg single IV dose, C57/BL10 female mice
# Method: Urinary and serum markers of kidney and liver toxicity were measured following a single dose administration of saline or the relevant peptide-PMO conjugate to 8 week old adult C57/BL10 female mice (N=6 per group). A bolus IV (tail vein) injection was administered and urine collected Day 2 and Day 7 after administration. Animals were then scarified prior to necropsy in which kidney, liver, diaphragm, heart, TA, gastric and serum were collected. Urine clinical indicators: KIM-1, NGAL were measured by ELISA (R&D cat #MKM100) with samples diluted to fit within standard curve. Values were normalised to urinary creatinine levels (Harwell) to account for urine protein concentration.
# Group 2—25 mg/kg Pip8b4-PMO SMN
# Group 3—25 mg/kg DPEP5.17-PMO SMN
# [2] = adult SMA mice, 2x15 mg/kg IV approx. 48 hours apart, tissue 7 days post final administration, normalised to saline treated controls, Central Nervous System
# [3] = adult SMA mice, 2x15 mg/kg IV approx. 48 hours apart, tissue 7 days post final administration, normalised to saline treated controls, spinal cord
substance,measurement,setting,value
Ac-RXRRBRR FS*RBRXR-B [Peptide 17],activity in cerebellum and cortex compared with peptide 6,"human SMN2-gene; FIG. 7, 2x15 mg/kg IV 48 hours apart, adult intermediate SMA mice",equivalent or improved activity
same,level of full length transcript (FLSMN) in all tissues,"human SMN2-gene; FIG. 7, 2x15 mg/kg IV 48 hours apart, adult intermediate SMA mice, central spinal cord, peripheral skeletal muscle and liver",> 1 fold
same,cell penetration in several compartments of the central nervous system and the skeletal muscle compared with currently available peptides 1-7,human SMN2-gene; Table 3 data,increased
same,"full-length SMN2 transcripts, mean expression level, Brainstem",human SMN2-gene; [2],1.2
same,"full-length SMN2 transcripts, mean expression level, Cerebellum",human SMN2-gene; [2],1.19*
same,"full-length SMN2 transcripts, mean expression level, Cortex",human SMN2-gene; [2],1.27*
same,"full-length SMN2 transcripts, mean expression level, Liver","human SMN2-gene; adult SMA mice, 2x15 mg/kg IV approx. 48 hours apart, tissue 7 days post final administration, normalised to saline treated controls, Off Target",3.78
same,"full-length SMN2 transcripts, mean expression level, Gastroc","human SMN2-gene; adult SMA mice, 2x15 mg/kg IV approx. 48 hours apart, tissue 7 days post final administration, normalised to saline treated controls, Skeletal Muscle (gastrocnemius)",3.25****
same,"full-length SMN2 transcripts, mean expression level, Quad","human SMN2-gene; adult SMA mice, 2x15 mg/kg IV approx. 48 hours apart, tissue 7 days post final administration, normalised to saline treated controls, Skeletal Muscle (quadriceps)",2.68***
same,"full-length SMN2 transcripts, mean expression level, TA","human SMN2-gene; adult SMA mice, 2x15 mg/kg IV approx. 48 hours apart, tissue 7 days post final administration, normalised to saline treated controls, Skeletal Muscle (tibialis anterior)",3.00***
same,"full-length SMN2 transcripts, mean expression level, Cervical",human SMN2-gene; [3],1.41*
same,"full-length SMN2 transcripts, mean expression level, Lumbar",human SMN2-gene; [3],1.1
same,"full-length SMN2 transcripts, mean expression level, Thoracic",human SMN2-gene; [3],1.39**
same,increase in cell penetration / exon inclusion compared with the currently available peptide conjugated to the same antisense oligonucleotide,"human SMN2-gene; in vivo, Table 3 data, peptide 17 versus peptide 6, peptide 14 versus peptide 2",up to 60.2%
same,"urinary KIM-1 level normalised to creatinine, compared with peptide 6",[1]; 2 days after administration,far lower
same,"urinary KIM-1 level normalised to creatinine, compared with peptide 6",[1]; 7 days post administration,lower
same,"urinary NGAL level normalised to creatinine, compared with peptide 6",[1]; 7 days post administration,lower
